Like-named read-outs stand apart in the source and are kept apart here.

The target in series [1] is T1, BSA (Bos taurus, UniProt P02769). The series is classed as in vitro ADME, bovine. The conditions noted are these: for Effect on the plasma protein binding of metoprolol: BSA, metoprolol 0.5, 1 and 2 μg mL^−1, statistical results (p > 0.05); for fraction unbound at 60 min, 0.5 μg mL^−1 / fraction unbound at 60 min, 1 μg mL^−1 / fraction unbound at 60 min, 2 μg mL^−1: bovine, BSA solution.

A short description of the next series: Nonspecific binding. The series is classed as in vitro ADME. The conditions noted are these: concentration recovered after ultrafiltration.
Series [2] concerns the target T1, BSA. As to the kind of experiment: Plasma protein binding of metoprolol in BSA by ultrafiltration and UPLC. The series is classed as in vitro ADME, bovine. The conditions noted are these: for C f: total free concentration in filtrate.
The subject of a further series is plasma protein. The conditions noted are these: in humans; cited from earlier work.

T1 sequence (P02769 25-607): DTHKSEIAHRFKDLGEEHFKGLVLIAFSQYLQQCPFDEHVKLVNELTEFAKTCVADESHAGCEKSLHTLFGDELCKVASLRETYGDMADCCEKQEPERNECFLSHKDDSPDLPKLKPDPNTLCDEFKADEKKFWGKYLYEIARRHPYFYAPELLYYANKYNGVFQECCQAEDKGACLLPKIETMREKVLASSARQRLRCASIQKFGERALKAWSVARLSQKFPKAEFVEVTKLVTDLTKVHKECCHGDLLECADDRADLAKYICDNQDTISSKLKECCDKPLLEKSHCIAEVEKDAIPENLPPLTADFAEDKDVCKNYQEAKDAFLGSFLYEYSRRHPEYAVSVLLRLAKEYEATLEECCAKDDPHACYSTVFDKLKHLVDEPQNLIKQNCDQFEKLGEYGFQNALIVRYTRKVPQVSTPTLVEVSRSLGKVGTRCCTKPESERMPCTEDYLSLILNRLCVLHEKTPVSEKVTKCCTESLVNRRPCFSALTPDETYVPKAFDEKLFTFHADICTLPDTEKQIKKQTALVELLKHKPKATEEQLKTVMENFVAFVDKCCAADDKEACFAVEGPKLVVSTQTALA

In the case of `C=C1CCC[C@]2(C)C[C@]3(O)OC(=O)C(C)=C3C[C@@H]12` [Atractylenolide III, atractylenolide III], on BSA [1], the “Effect on the plasma protein binding of metoprolol” value (shortened to “Effect”) is given as “unlikely to affect”.

Take `O=C(O)/C=C/c1ccccc1` [Cinnamic acid, cinnamic acid]: the “Effect” value on BSA [1] was “unlikely to affect”.

For the compound `CC1(C)[C@@H](O[C@H]2O[C@H](C(=O)O)[C@@H](O)[C@H](O)[C@H]2O[C@@H]2O[C@H](C(=O)O)[C@@H](O)[C@H](O)[C@H]2O)CC[C@]2(C)[C@H]3C(=O)C=C4[C@@H]5C[C@@](C)(C(=O)O)CC[C@]5(C)CC[C@@]4(C)[C@]3(C)CC[C@@H]12` [Glycyrrhizic acid, glycyrrhizic acid], the “Effect” value at BSA [1] is “unlikely to affect”.

Turning to `O=C1C[C@@H](c2ccc(O[C@@H]3O[C@H](CO)[C@@H](O)[C@H](O)[C@H]3O)cc2)Oc2cc(O)ccc21` [Liquiritin, liquiritin], on BSA [1], the “Effect” value is reported as “unlikely to affect”.

For the compound `COCCc1ccc(OCC(O)CNC(C)C)cc1` (centres unmarked) [Metoprolol], the C post was found to be 0.40 ± 0.02 µg/mL in “Nonspecific binding” (added 0.5 μg mL^−1), 0.78 ± 0.03 µg/mL in “Nonspecific binding” (added 1.0 μg mL^−1) and 1.55 ± 0.05 µg/mL in the series “Nonspecific binding” (added 2.0 μg mL^−1). Further, the fraction unbound at 60 min, 0.5 μg mL^−1 at BSA [2] (bovine, BSA solution) was 0.718; at BSA [1] (Plasma protein binding (with cinnamic acid), metoprolol 0.5 μg mL^−1 plus cinnamic acid 1 μg mL^−1, BSA), 0.741; at BSA [1] (Plasma protein binding (with glycyrrhizic acid), metoprolol 0.5 μg mL^−1 plus glycyrrhizic acid 2 μg mL^−1, BSA), 0.721; at BSA [1] (Plasma protein binding (with liquiritin), metoprolol 0.5 μg mL^−1 plus liquiritin 2 μg mL^−1, BSA), 0.74. For the same compound, the unbound share (fraction unbound) at 60 min, 1 μg mL^−1 at BSA [2] (bovine, BSA solution) is 0.703; at BSA [1] (Plasma protein binding (with cinnamic acid), metoprolol 1 μg mL^−1 plus cinnamic acid 1 μg mL^−1, BSA), 0.693; at BSA [1] (Plasma protein binding (with glycyrrhizic acid), metoprolol 1 μg mL^−1 plus glycyrrhizic acid 2 μg mL^−1, BSA) it was 0.717; at BSA [1] (Plasma protein binding (with liquiritin), metoprolol 1 μg mL^−1 plus liquiritin 2 μg mL^−1, BSA), 0.708. Besides, the unbound share (fraction unbound) at 60 min, 2 μg mL^−1 at BSA [2] (bovine, BSA solution) is 0.716; at BSA [1] (Plasma protein binding (with cinnamic acid), metoprolol 2 μg mL^−1 plus cinnamic acid 1 μg mL^−1, BSA), 0.716; on BSA [1] (Plasma protein binding (with glycyrrhizic acid), metoprolol 2 μg mL^−1 plus glycyrrhizic acid 2 μg mL^−1, BSA), 0.704; on BSA [1] (Plasma protein binding (with liquiritin), metoprolol 2 μg mL^−1 plus liquiritin 2 μg mL^−1, BSA), 0.701. For the same compound, the C f at BSA [2] (metoprolol 0.5 μg mL^−1 alone) was 0.36 ± 0.01 µg/mL; at BSA [2] (metoprolol 1 μg mL^−1 alone), 0.70 ± 0.02 µg/mL; on BSA [2] (metoprolol 2 μg mL^−1 alone), 1.45 ± 0.03 µg/mL; on BSA [1] (metoprolol 0.5 μg mL^−1 plus cinnamic acid 1 μg mL^−1) it was 0.37 ± 0.01 µg/mL; on BSA [1] (metoprolol 1 μg mL^−1 plus cinnamic acid 1 μg mL^−1), 0.69 ± 0.02 µg/mL; at BSA [1] (metoprolol 2 μg mL^−1 plus cinnamic acid 1 μg mL^−1), 1.44 ± 0.03 µg/mL. Also, the C free at BSA [1] (metoprolol 0.5 μg mL^−1 plus atractylenolide III (0.1 μg mL^−1)) came out at 0.37 ± 0.02 µg/mL; at BSA [1] (metoprolol 0.5 μg mL^−1 plus glycyrrhizic acid 2 μg mL^−1) it was 0.35 ± 0.02 µg/mL; at BSA [1] (metoprolol 0.5 μg mL^−1 plus liquiritin 2 μg mL^−1), 0.37 ± 0.01 µg/mL; at BSA [1] (metoprolol 1 μg mL^−1 plus atractylenolide III (0.1 μg mL^−1)) it was 0.70 ± 0.02 µg/mL; on BSA [1] (metoprolol 1 μg mL^−1 plus glycyrrhizic acid 2 μg mL^−1) it was 0.72 ± 0.02 µg/mL; at BSA [1] (metoprolol 1 μg mL^−1 plus liquiritin 2 μg mL^−1), 0.71 ± 0.03 µg/mL. Also, the C free at BSA [1] (metoprolol 2 μg mL^−1 plus atractylenolide III (0.1 μg mL^−1)) was determined as 1.40 ± 0.08 µg/mL; at BSA [1] (metoprolol 2 μg mL^−1 plus glycyrrhizic acid 2 μg mL^−1), 1.40 ± 0.03 µg/mL; on BSA [1] (metoprolol 2 μg mL^−1 plus liquiritin 2 μg mL^−1), 1.39 ± 0.03 µg/mL. In addition, the “mean plasma protein binding (PPB)” value in the series on plasma protein is given as 30.70 ± 2.76%.

The record behind these values is article PMC9088703 (RSC Advances, 2018).
